Measured values reported in patent US10815230B2, “Casein kinase 1 delta inhibitor” (ELECTROPHORETICS LIMITED, priority 2015, dated 2020).

Experiments:
Assay in all cases: KINOMEscan binding assay
Details in all cases: read-out: % Ctrl @ 10000 nM
DCAMKL1 = DCAMKL1 (Homo sapiens, UniProt O15075)
NEK10 = NEK10 (Homo sapiens, UniProt Q6ZWH5)
IGF1R = IGF1R (Homo sapiens, UniProt P08069)
PLK1 = PLK1 (Homo sapiens, UniProt P53350)
FYN = FYN (Homo sapiens, UniProt P06241)
PHKG1 = PHKG1 (Homo sapiens, UniProt Q16816)
PIK3CA (M1043I) = PIK3CA (M1043I) (Homo sapiens, UniProt P42336, M1043I)
PFPK5 P. falciparum = PFPK5 P. falciparum (Plasmodium falciparum, UniProt P61075)
[1] = biological target: ABL1 (E255K) phosphorylated (Homo sapiens, UniProt P00519, E255K)
EPHB4 = EPHB4 (Homo sapiens, UniProt P54760)
AMPK-alpha1 = AMPK-alpha1 (Homo sapiens, UniProt Q13131)
RIOK1 = RIOK1 (Homo sapiens, UniProt Q9BRS2)
ITK = ITK (Homo sapiens, UniProt Q08881)
EPHA1 = EPHA1 (Homo sapiens, UniProt P21709)
CAMK2B = CAMK2B (Homo sapiens, UniProt Q13554)
ERBB2 = ERBB2 (Homo sapiens, UniProt P04626)
DAPK1 = DAPK1 (Homo sapiens, UniProt P53355)
ROCK1 = ROCK1 (Homo sapiens, UniProt Q13464)
FRK = FRK (Homo sapiens, UniProt P42685)
TRKC = TRKC (Homo sapiens, UniProt Q16288)
FGFR4 = FGFR4 (Homo sapiens, UniProt P22455)
KIT (V559D, V654A) = KIT (V559D, V654A) (Homo sapiens, UniProt P10721, V559D/V654A)
Chain of KIT (V559D, V654A) (P10721 26-976 V559D/V654A): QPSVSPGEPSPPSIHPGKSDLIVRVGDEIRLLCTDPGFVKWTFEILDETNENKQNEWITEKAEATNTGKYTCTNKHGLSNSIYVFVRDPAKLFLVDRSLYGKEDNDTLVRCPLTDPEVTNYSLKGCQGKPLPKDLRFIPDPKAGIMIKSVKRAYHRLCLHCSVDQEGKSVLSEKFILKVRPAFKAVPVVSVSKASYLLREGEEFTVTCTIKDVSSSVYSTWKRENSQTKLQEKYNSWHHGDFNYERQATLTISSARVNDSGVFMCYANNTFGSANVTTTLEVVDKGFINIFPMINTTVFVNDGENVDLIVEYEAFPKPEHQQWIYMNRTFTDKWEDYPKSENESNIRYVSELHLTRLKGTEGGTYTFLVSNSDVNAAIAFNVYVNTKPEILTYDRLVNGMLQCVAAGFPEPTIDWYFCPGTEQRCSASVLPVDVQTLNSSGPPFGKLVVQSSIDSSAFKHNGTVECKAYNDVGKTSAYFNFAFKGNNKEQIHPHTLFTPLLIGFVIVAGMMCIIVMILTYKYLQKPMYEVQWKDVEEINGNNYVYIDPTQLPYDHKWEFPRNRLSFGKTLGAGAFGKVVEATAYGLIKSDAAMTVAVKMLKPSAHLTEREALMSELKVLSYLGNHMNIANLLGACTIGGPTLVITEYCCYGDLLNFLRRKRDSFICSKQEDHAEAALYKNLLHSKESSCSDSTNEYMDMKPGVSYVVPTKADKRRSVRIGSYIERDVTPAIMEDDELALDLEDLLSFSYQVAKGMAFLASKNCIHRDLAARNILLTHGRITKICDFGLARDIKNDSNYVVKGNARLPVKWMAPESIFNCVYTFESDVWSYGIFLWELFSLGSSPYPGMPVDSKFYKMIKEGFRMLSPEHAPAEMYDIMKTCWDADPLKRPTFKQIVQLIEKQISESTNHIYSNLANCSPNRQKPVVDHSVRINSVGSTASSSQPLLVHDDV

PIM1 = PIM1 (Homo sapiens, UniProt P11309)
CSNK1A1 = CSNK1A1 (Homo sapiens, UniProt P48729)
MAP4K3 = biological target: T1, MAP4K3 (Homo sapiens, UniProt Q8IVH8)
T1 construct: T7 phage fusion (most assays) or DNA label after HEK293 expression; purchased DiscoveRx (KINOMEscan, LeadHunter Discovery services); host or cells: T7 phage in E. coli (BL21-derived) or HEK293

TBK1 = TBK1 (Homo sapiens, UniProt Q9UHD2)
EGFR (L858R, T790M) = EGFR (L858R, T790M) (Homo sapiens, UniProt P00533, L858R/T790M)
OSR1 = OSR1 (Homo sapiens, UniProt O95747)
Chain of OSR1 (O95747 whole entry): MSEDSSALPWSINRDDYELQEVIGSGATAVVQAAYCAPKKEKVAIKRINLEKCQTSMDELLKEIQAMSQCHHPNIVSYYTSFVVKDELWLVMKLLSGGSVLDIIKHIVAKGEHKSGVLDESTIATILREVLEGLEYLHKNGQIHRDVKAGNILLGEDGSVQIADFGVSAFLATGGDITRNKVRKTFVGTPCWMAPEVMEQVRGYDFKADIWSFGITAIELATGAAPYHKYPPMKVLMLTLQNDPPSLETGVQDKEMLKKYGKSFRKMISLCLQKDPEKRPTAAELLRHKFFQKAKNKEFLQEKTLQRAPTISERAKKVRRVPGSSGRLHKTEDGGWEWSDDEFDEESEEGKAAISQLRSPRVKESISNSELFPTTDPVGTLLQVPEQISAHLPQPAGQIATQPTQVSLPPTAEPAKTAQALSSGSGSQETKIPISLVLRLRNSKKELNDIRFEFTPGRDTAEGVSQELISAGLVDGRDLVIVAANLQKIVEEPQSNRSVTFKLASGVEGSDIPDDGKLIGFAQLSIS

CDK4-cyclinD1 = CDK4-cyclinD1 (Homo sapiens, UniProt P11802)
CDK8 = CDK8 (Homo sapiens, UniProt P49336)
TSSK1B = TSSK1B (Homo sapiens, UniProt Q9BXA7)
EGFR (L861Q) = EGFR (L861Q) (Homo sapiens, UniProt P00533, L861Q)
ACVR1B = ACVR1B (Homo sapiens, UniProt P36896)
Chain of ACVR1B (P36896 24-505): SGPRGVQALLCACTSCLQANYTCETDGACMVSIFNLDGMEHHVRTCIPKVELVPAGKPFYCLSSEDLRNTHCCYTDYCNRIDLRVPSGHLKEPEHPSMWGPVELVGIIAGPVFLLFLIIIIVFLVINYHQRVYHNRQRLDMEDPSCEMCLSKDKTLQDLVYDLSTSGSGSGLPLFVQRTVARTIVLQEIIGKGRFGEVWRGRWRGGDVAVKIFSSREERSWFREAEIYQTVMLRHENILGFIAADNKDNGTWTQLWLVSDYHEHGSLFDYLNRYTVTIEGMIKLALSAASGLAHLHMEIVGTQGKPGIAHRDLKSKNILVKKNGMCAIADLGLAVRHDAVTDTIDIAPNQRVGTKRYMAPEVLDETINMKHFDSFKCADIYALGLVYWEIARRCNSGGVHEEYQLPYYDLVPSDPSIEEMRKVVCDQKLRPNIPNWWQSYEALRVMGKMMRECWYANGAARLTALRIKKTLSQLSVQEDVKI

NEK4 = NEK4 (Homo sapiens, UniProt P51957)
TRKB = TRKB (Homo sapiens, UniProt Q16620)
ERK5 = ERK5 (Homo sapiens, UniProt Q13164)
CIT = CIT (Homo sapiens, UniProt O14578)
MAP3K3 = MAP3K3 (Homo sapiens, UniProt Q99759)
Chain of MAP3K3 (Q99759 whole entry): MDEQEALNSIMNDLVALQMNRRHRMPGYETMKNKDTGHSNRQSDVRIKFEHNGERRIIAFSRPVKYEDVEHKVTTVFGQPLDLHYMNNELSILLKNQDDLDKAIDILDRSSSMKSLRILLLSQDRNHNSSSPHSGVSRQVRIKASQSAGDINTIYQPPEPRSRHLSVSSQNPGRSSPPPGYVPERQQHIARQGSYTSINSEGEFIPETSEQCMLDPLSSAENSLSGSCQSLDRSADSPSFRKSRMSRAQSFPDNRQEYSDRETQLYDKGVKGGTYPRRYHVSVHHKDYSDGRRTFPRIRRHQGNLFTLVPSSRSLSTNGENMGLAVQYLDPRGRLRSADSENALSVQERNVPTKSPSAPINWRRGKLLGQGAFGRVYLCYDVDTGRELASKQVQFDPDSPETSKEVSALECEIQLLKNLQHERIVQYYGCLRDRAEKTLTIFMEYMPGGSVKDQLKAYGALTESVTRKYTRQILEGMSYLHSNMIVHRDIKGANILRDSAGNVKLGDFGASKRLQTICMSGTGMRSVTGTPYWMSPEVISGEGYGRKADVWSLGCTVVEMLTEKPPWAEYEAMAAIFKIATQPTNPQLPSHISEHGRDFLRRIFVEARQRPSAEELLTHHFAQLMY

EGFR = EGFR (Homo sapiens, UniProt P00533)
MLK2 = MLK2 (Homo sapiens, UniProt Q02779)
BMPR1A = BMPR1A (Homo sapiens, UniProt P36894)

Chain of IGF1R (P08069 31-1367): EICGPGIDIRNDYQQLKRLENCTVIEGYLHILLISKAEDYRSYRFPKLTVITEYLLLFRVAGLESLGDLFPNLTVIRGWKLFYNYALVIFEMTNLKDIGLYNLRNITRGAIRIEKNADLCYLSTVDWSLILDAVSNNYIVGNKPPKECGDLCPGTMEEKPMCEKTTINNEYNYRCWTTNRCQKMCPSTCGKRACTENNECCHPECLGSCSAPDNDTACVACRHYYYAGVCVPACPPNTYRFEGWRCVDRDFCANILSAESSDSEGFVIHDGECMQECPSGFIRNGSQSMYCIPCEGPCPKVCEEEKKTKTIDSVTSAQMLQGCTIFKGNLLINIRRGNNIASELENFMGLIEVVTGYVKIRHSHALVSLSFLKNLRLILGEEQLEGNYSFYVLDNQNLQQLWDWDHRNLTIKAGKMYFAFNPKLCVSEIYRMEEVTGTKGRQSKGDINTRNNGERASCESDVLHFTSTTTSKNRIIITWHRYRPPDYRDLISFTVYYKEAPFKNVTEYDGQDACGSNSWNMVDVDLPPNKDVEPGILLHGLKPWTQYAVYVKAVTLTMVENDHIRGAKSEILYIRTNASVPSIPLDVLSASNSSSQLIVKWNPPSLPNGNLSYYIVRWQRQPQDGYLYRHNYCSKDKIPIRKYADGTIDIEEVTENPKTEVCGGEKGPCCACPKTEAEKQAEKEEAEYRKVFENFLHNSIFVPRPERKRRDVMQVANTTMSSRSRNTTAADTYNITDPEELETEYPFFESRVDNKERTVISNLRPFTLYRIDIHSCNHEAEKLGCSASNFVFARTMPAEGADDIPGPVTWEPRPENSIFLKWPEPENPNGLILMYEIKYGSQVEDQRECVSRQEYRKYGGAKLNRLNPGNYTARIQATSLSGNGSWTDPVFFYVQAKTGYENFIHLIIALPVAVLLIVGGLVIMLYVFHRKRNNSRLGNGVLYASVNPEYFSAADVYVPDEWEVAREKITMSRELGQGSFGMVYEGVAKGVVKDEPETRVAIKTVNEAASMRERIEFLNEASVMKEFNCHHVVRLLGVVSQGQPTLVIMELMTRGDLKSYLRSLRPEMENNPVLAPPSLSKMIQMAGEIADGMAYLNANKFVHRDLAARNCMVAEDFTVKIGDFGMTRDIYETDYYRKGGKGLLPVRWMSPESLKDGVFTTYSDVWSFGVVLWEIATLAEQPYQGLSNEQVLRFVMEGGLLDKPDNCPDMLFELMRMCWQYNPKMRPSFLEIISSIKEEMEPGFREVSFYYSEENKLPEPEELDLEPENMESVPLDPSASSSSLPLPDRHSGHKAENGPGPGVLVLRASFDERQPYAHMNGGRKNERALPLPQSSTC
Chain of NEK10 (Q6ZWH5 whole entry): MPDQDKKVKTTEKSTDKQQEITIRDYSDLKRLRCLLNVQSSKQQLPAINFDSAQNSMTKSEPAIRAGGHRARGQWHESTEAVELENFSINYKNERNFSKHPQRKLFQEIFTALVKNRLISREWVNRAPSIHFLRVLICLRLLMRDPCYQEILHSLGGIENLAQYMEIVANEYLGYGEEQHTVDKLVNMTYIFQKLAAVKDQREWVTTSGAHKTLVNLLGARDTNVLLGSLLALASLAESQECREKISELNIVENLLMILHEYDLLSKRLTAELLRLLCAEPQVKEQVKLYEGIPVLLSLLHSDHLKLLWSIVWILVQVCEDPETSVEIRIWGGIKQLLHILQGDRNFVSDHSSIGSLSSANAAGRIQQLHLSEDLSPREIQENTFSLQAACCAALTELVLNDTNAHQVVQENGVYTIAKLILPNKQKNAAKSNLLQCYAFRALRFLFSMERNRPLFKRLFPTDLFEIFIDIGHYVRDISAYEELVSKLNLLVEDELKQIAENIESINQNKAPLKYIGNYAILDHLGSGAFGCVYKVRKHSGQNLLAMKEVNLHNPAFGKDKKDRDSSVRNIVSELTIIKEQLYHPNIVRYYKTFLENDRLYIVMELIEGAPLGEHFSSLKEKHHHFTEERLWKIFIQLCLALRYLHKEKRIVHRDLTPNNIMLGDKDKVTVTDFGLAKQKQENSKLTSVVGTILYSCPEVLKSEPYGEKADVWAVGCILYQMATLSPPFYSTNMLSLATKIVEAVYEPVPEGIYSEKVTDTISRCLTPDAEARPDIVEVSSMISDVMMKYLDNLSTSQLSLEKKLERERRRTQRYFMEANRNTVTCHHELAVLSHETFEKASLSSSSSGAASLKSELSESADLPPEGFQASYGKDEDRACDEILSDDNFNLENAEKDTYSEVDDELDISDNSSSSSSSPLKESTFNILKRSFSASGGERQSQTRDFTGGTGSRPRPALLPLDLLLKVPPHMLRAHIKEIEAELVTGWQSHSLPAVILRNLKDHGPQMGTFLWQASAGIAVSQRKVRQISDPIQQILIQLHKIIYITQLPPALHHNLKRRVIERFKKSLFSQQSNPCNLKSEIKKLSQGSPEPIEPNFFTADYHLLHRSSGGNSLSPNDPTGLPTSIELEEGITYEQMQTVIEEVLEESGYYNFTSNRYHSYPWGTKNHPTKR

Compound: Nc1ncc(-c2nc3ccccc3o2)c(-c2ccncc2)n1 [Comparative Compound 324, 5-(1,3-benzoxazol-2-yl)-4-(pyridine-4-yl)pyrimidin-2-amine]
- remaining binding at 10 µM (DCAMKL1): 41%
- remaining binding at 10 µM (NEK10): 56%
- remaining binding at 10 µM (IGF1R): 100%
- remaining binding at 10 µM (PLK1): 90%
- remaining binding at 10 µM (FYN): 60%
- remaining binding at 10 µM (PHKG1): 100%
- remaining binding at 10 µM (PIK3CA (M1043I)): 100%
- remaining binding at 10 µM (PFPK5 P. falciparum): 100%
- remaining binding at 10 µM [1]: 33%
- remaining binding at 10 µM (EPHB4): 100%
- remaining binding at 10 µM (AMPK-alpha1): 98%
- remaining binding at 10 µM (RIOK1): 100%
- remaining binding at 10 µM (ITK): 86%
- remaining binding at 10 µM (EPHA1): 83%
- remaining binding at 10 µM (CAMK2B): 100%
- remaining binding at 10 µM (ERBB2): 99%
- remaining binding at 10 µM (DAPK1): 87%
- remaining binding at 10 µM (ROCK1): 96%
- remaining binding at 10 µM (FRK): 100%
- remaining binding at 10 µM (TRKC): 81%
- remaining binding at 10 µM (FGFR4): 100%
- remaining binding at 10 µM (KIT (V559D, V654A)): 79%
- remaining binding at 10 µM (PIM1): 98%
- remaining binding at 10 µM (CSNK1A1): 4.2%
- remaining binding at 10 µM (MAP4K3): 100%
- remaining binding at 10 µM (TBK1): 85%
- remaining binding at 10 µM (EGFR (L858R, T790M)): 51%
- remaining binding at 10 µM (OSR1): 100%
- remaining binding at 10 µM (CDK4-cyclinD1): 85%
- remaining binding at 10 µM (CDK8): 100%
- remaining binding at 10 µM (TSSK1B): 100%
- remaining binding at 10 µM (EGFR (L861Q)): 64%
- remaining binding at 10 µM (ACVR1B): 100%
- remaining binding at 10 µM (NEK4): 89%
- remaining binding at 10 µM (TRKB): 67%
- remaining binding at 10 µM (ERK5): 93%
- remaining binding at 10 µM (CIT): 73%
- remaining binding at 10 µM (MAP3K3): 76%
- remaining binding at 10 µM (EGFR): 100%
- remaining binding at 10 µM (MLK2): 100%
- remaining binding at 10 µM (BMPR1A): 100%

Compound: CNc1c(C(N)=O)c2ccccn2c1C(=O)c1ccc(F)cc1 [Compound A, 2-methyl-amino-3-[(4-fluorophenyl)carbonyl]indolizine-1-carboxamide]
- remaining binding at 10 µM (DCAMKL1): 44%
- remaining binding at 10 µM (NEK10): 100%
- remaining binding at 10 µM (IGF1R): 99%
- remaining binding at 10 µM (PLK1): 82%
- remaining binding at 10 µM (FYN): 33%
- remaining binding at 10 µM (PHKG1): 97%
- remaining binding at 10 µM (PIK3CA (M1043I)): 100%
- remaining binding at 10 µM (PFPK5 P. falciparum): 100%
- remaining binding at 10 µM [1]: 15%
- remaining binding at 10 µM (EPHB4): 54%
- remaining binding at 10 µM (AMPK-alpha1): 91%
- remaining binding at 10 µM (RIOK1): 100%
- remaining binding at 10 µM (ITK): 78%
- remaining binding at 10 µM (EPHA1): 72%
- remaining binding at 10 µM (CAMK2B): 62%
- remaining binding at 10 µM (ERBB2): 49%
- remaining binding at 10 µM (DAPK1): 77%
- remaining binding at 10 µM (ROCK1): 100%
- remaining binding at 10 µM (FRK): 58%
- remaining binding at 10 µM (TRKC): 75%
- remaining binding at 10 µM (FGFR4): 100%
- remaining binding at 10 µM (KIT (V559D, V654A)): 16%
- remaining binding at 10 µM (PIM1): 92%
- remaining binding at 10 µM (CSNK1A1): 0.95%
- remaining binding at 10 µM (MAP4K3): 100%
- remaining binding at 10 µM (TBK1): 74%
- remaining binding at 10 µM (EGFR (L858R, T790M)): 88%
- remaining binding at 10 µM (OSR1): 99%
- remaining binding at 10 µM (CDK4-cyclinD1): 47%
- remaining binding at 10 µM (CDK8): 99%
- remaining binding at 10 µM (TSSK1B): 100%
- remaining binding at 10 µM (EGFR (L861Q)): 29%
- remaining binding at 10 µM (ACVR1B): 100%
- remaining binding at 10 µM (NEK4): 96%
- remaining binding at 10 µM (TRKB): 76%
- remaining binding at 10 µM (ERK5): 78%
- remaining binding at 10 µM (CIT): 58%
- remaining binding at 10 µM (MAP3K3): 48%
- remaining binding at 10 µM (EGFR): 49%
- remaining binding at 10 µM (MLK2): 91%
- remaining binding at 10 µM (BMPR1A): 100%
